This assay relates to protein extravasation. Kind of assay: Inhibition of protein extravasation, trigeminal stimulation assay. Type of assay: in vivo, Guinea pigs. To be noted: guinea pig dura mater, [125I]-BSA extravasation after stimulation of the right trigeminal ganglion. Here is the method: Compounds of the inventions were evaluated for their ability to block neurogenic inflammation via inhibition of protein extravasation using the trigeminal stimulation assay as described in Markowitz, et al. J, Neurosci. 1987, 7:4129 and Lee, et al. Brain Res, 1993, 626:303. This is believed to indicate a compound's ability to act as an agonist at the 5-HT1Da and/or 5-HT1F receptors.
Guinea pigs were anesthetized with pentobarbitone sodium (60 mg kg^-1, i.p.). Animals were placed in a stereotaxic frame (DKI 900, David Kopf Instruments, Tujunga, CA, U.S.A.). The right femoral vein was exposed and [^125I]-BSA ([…]) was injected as a bolus. With the incisor bar set at -1.5 mm from the horizontal line, the calvarium was exposed by a midline incision. Symmetrical burr holes (2 mm in diameter) were drilled at 3.7 mm posterior to the bregma and 3.2 mm lateral to the sagittal suture. Bipolar electrodes (50 mm shaft, Rhodes Medical Instruments, Woodland Hills, CA, U.S.A.) were lowered into the trigeminal ganglia to a depth of 9.5 mm from the dura mater overlying the dorsal surface of the brain. […] Radioactivity was determined on two sides with a gamma counter (Micromedic 4/600, Micromedic Systems, Inc., Huntsville, AL, U.S.A.) as previously described (Markowitz, et al., 1987 and Lee, et al., 1993).

Regarding `CNS(=O)(=O)Cc1ccc2[nH]cc(CCN(C)C)c2c1` [sumatriptan], the ID50 was in the range of 3.3 to 7 nM/kg.

The values above are taken from patent EP0944595B1, “5-CYCLO INDOLE COMPOUNDS AS 5-HT1D RECEPTOR LIGANDS” (NPS Allelix Corp., priority 1996, dated 1998).
